In paper PMC7169845, “Synthesis and Bioactivity of Phthalimide Analogs as Potential Drugs to Treat Schistosomiasis, a Neglected Disease of Poverty” (Pharmaceuticals, 2020):

SMILES	melting point [°C]
Cc1ccc2c(c1)C(=O)N(C(C)c1nc3ccccc3n1Cc1cn(-c3ccc(F)cc3F)nn1)C2=O (stereo not shown) [6p’, 2-(1-(1-((1-(2,4-Difluorophenyl)-1H-1,2,3-triazol-4-yl)methyl)-1H-benzo[d]imidazol-2-yl)ethyl)-5-methylisoindoline-1,3-dione]	206 to 208
Cc1ccc2c(c1)C(=O)N(C(CC(C)C)c1nc3ccccc3n1Cc1cn(-c3ccc(C(F)(F)F)cc3)nn1)C2=O (stereo not shown) [6e, 5-Methyl-2-(3-methyl-1-(1-((1-(4-(trifluoromethyl)phenyl)-1H-1,2,3-triazol-4-yl)methyl)-1H-benzo[d]imidazol-2-yl)butyl)isoindoline-1,3-dione]	218 to 220
CC(C)C(c1nc2ccccc2n1Cc1cn(-c2ccc(F)cc2F)nn1)N1C(=O)c2ccccc2C1=O (stereo not shown) [6t’, 2-(1-(1-((1-(2,4-Difluorophenyl)-1H-1,2,3-triazol-4-yl)methyl)-1H-benzo[d]imidazol-2-yl)-2-methylpropyl)isoindoline-1,3-dione]	100 to 102
CCC(C)C(c1nc2ccccc2n1Cc1cn(-c2c(F)c(F)c(F)c(F)c2F)nn1)N1C(=O)c2ccccc2C1=O (stereo not shown) [6t, 2-(2-Methyl-1-(1-((1-(perfluorophenyl)-1H-1,2,3-triazol-4-yl)methyl)-1H-benzo[d]imidazol-2-yl)butyl)isoindoline-1,3-dione]	86 to 88
Cc1ccc2c(c1)C(=O)N(C(C)c1nc3ccccc3n1Cc1cn(-c3c(F)cccc3F)nn1)C2=O (stereo not shown) [6q’, 2-(1-(1-((1-(2,6-Difluorophenyl)-1H-1,2,3-triazol-4-yl)methyl)-1H-benzo[d]imidazol-2-yl)ethyl)-5-methylisoindoline-1,3-dione]	166 to 168
CC(c1nc2ccccc2n1Cc1cn(-c2c(F)cccc2F)nn1)N1C(=O)c2ccccc2C1=O (stereo not shown) [6f’, 2-(1-(1-((1-(2,6-Difluorophenyl)-1H-1,2,3-triazol-4-yl)methyl)-1H-benzo[d]imidazol-2-yl)ethyl)isoindoline-1,3-dione]	94 to 96
Cc1ccc2c(c1)C(=O)N(C(CC(C)C)c1nc3ccccc3n1Cc1cn(-c3ccc(F)cc3)nn1)C2=O (stereo not shown) [6a, 2-(1-(1-((1-(4-Fluorophenyl)-1H-1,2,3-triazol-4-yl)methyl)-1H-benzo[d]imidazol-2-yl)-3-methylbutyl)-5-methylisoindoline-1,3-dione]	208 to 210
CC(c1nc2ccccc2n1Cc1cn(-c2ccc(F)cc2F)nn1)N1C(=O)c2ccccc2C1=O (stereo not shown) [6d’, 2-(1-(1-((1-(2,4-Difluorophenyl)-1H-1,2,3-triazol-4-yl)methyl)-1H-benzo[d]imidazol-2-yl)ethyl)isoindoline-1,3-dione]	195 to 197
Cc1ccc2c(c1)C(=O)N(C(CC(C)C)c1nc3ccccc3n1Cc1cn(-c3ccc(F)cc3F)nn1)C2=O (stereo not shown) [6j, 2-(1-(1-((1-(2,4-Difluorophenyl)-1H-1,2,3-triazol-4-yl)methyl)-1H-benzo[d]imidazol-2-yl)-3-methylbutyl)-5-methylisoindoline-1,3-dione]	72 to 74
Cc1ccc2c(c1)C(=O)N(C(CC(C)C)c1nc3ccccc3n1Cc1c[nH]nn1)C2=O (stereo not shown) [6c, 2-(1-(1-((1H-1,2,3-Triazol-4-yl)methyl)-1H-benzo[d]imidazol-2-yl)-3-methylbutyl)-5-methylisoindoline-1,3-dione]	150 to 152
